Patent US7728028B2, “Substituted imidazoline compounds” (Gruenenthal GmbH, priority 2005, dated 2010)

Each molecule was assayed against T1, human μ-opiate receptor (Homo sapiens, UniProt P35372) (assay: Affinity for the human μ-opiate receptor ([3H]-naloxone displacement, SPA)). Details: Table 2, Examples 11-161; test substance 1 μmole/l; inhibition of specific [3H]-naloxone binding; CHO-K1 membranes; read-out: μ-Opioid receptor, % inhibition [1 μM].
T1 construct: purchased PerkinElmer Life Sciences, Zaventem, Belgium RB-HOM; host or cells: CHO-K1 cells (recombinant expression; membrane preparation)
T1 sequence (P35372 whole entry): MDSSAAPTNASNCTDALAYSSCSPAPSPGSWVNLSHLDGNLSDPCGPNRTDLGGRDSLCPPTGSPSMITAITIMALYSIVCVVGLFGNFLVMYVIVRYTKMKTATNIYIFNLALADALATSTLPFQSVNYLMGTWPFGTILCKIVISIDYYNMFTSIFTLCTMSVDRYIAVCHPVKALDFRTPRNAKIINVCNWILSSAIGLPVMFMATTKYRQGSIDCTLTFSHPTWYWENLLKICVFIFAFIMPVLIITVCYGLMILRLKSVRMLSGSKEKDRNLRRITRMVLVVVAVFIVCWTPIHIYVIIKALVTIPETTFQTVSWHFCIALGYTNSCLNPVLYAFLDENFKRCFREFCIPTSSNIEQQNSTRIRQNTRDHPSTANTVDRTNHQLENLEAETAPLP
In short: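 CHO-K1 membranes expressing the receptor, incubated 90 min at room temperature with 1 nmol/l [3H]-naloxone and WGA-SPA beads in 50 mmol/l Tris-HCl with 0.06% BSA. Non-specific binding defined with 100 μmol/l naloxone. Value is % inhibition of specific binding at 1 μmol/l test substance.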
`CCCCN1C=NC(CCC(=O)OC)(C(=O)OC)C1CC1CCC(C(CCc2ccccc2)N(C)C)CC1` (centres unmarked) [Example 78, 1-butyl-5-[4-(1-dimethylamino-3-phenylpropyl)-cyclohexylmethyl]-4-(2-methoxycarbonylethyl)-4,5-dihydro-1H-imidazole-4-carboxylic acid methyl ester] showed an inhibition at 1 µM of 67%.
In the case of `CCCCN1C=NC(CSCc2ccccc2)(C(=O)OC)C1CC1CCC(C(CCc2ccccc2)N(C)C)CC1` (centres unmarked) [Example 79, 4-benzylsulfanylmethyl-1-butyl-5-[4-(1-dimethylamino-3-phenylpropyl)-cyclohexylmethyl]-4,5-dihydro-1H-imidazole-4-carboxylic acid methyl ester], the inhibition at 1 µM is reported as 79%.
Molecule `COC(=O)CCC1(C(=O)OC)N=CN(CCc2ccccc2)C1CC1CCC(C(c2cccc(F)c2)N(C)C)CC1` (centres unmarked) [Example 80, 5-{4-[dimethylamino-(3-fluorophenyl)-methyl]-cyclohexylmethyl}-4-(2-methoxycarbonylethyl)-1-phenethyl-4,5-dihydro-1H-imidazole-4-carboxylic acid methyl ester] has an inhibition at 1 µM of 90%.
With `CCC(C)C1(C(=O)OC)N=CN(CCc2ccccc2)C1CC1CCC(C(c2cccc(F)c2)N(C)C)CC1` (centres unmarked) [Example 81, 4-sec-butyl-5-{4-[dimethylamino-(3-fluorophenyl)-methyl]-cyclohexylmethyl}-1-phenethyl-4,5-dihydro-1H-imidazole-4-carboxylic acid methyl ester] the inhibition at 1 µM was 76%.
`COC(=O)C1(CSCc2ccccc2)N=CN(CCc2ccccc2)C1CC1CCC(C(c2cccc(F)c2)N(C)C)CC1` (centres unmarked) [Example 82, 4-benzylsulfanylmethyl-5-{4-[dimethylamino-(3-fluorophenyl)-methyl]-cyclohexylmethyl}-1-phenethyl-4,5-dihydro-1H-imidazole-4-carboxylic acid methyl ester] gave an inhibition at 1 µM of 95%.
`COC(=O)CCC1(C(=O)OC)N=CN(CCc2ccccc2)C1CC1CCC(C(c2ccc(F)cc2)N(C)C)CC1` (centres unmarked) [Example 83, 5-{4-[dimethylamino-(4-fluorophenyl)-methyl]-cyclohexylmethyl}-4-(2-methoxycarbonylethyl)-1-phenethyl-4,5-dihydro-1H-imidazole-4-carboxylic acid methyl ester] gave an inhibition at 1 µM of 77%.
For `COC(=O)CCC1(C(=O)OC)N=CN(CCc2ccccc2)C1CC1CCC(C(CCc2ccccc2)N(C)C)CC1` (centres unmarked) [Example 84, 5-[4-(1-dimethylamino-3-phenylpropyl)-cyclohexylmethyl]-4-(2-methoxycarbonylethyl)-1-phenethyl-4,5-dihydro-1H-imidazole-4-carboxylic acid methyl ester], the inhibition at 1 µM was 75%.
Work on `COC(=O)CCC1(C(=O)OC)N=CN(Cc2ccccc2)C1CC1CCC(C(c2cccc(F)c2)N(C)C)CC1` (centres unmarked) [Example 85, 1-benzyl-5-{4-[dimethylamino-(3-fluorophenyl)-methyl]-cyclohexylmethyl}-4-(2-methoxycarbonylethyl)-4,5-dihydro-1H-imidazole-4-carboxylic acid methyl ester] yielded an inhibition at 1 µM of 95%.
Work on `COC(=O)C1(CSCc2ccccc2)N=CN(Cc2ccccc2)C1CC1CCC(C(c2cccc(F)c2)N(C)C)CC1` (centres unmarked) [Example 86, 1-benzyl-4-benzylsulfanylmethyl-5-{4-[dimethylamino-(3-fluorophenyl)-methyl]-cyclohexylmethyl}-4,5-dihydro-1H-imidazole-4-carboxylic acid methyl ester] yielded an inhibition at 1 µM of 71%.
Molecule `COC(=O)CCC1(C(=O)OC)N=CN(Cc2ccccc2)C1CC1CCC(C(c2ccc(F)cc2)N(C)C)CC1` (centres unmarked) [Example 87, 1-benzyl-5-{4-[dimethylamino-(4-fluorophenyl)-methyl]-cyclohexylmethyl}-4-(2-methoxycarbonylethyl)-4,5-dihydro-1H-imidazole-4-carboxylic acid methyl ester] has an inhibition at 1 µM of 95%.
In the case of `CCCCN1C=NC(C(=O)OC)(C(C)CC)C1CC1CCC(C(c2ccc(Cl)cc2)N(C)C)CC1` (centres unmarked) [Example 88, 1-butyl-4-sec-butyl-5-{4-[(4-chlorophenyl)-dimethylaminomethyl]-cyclohexylmethyl}-4,5-dihydro-1H-imidazole-4-carboxylic acid methyl ester], the inhibition at 1 µM is reported as 98%.
`CCCCN1C=NC(CSC)(C(=O)OC)C1CC1CCC(C(c2ccc(Cl)cc2)N(C)C)CC1` (centres unmarked) [Example 89, 1-butyl-5-{4-[(4-chlorophenyl)-dimethylaminomethyl]-cyclohexylmethyl}-4-methylsulfanylmethyl-4,5-dihydro-1H-imidazole-4-carboxylic acid methyl ester] gave an inhibition at 1 µM of 96%.
With `CCCCN1C=NC(CSCc2ccccc2)(C(=O)OC)C1CC1CCC(C(c2ccc(Cl)cc2)N(C)C)CC1` (centres unmarked) [Example 90, 4-benzylsulfanylmethyl-1-butyl-5-{4-[(4-chlorophenyl)-dimethylaminomethyl]-cyclohexylmethyl}-4,5-dihydro-1H-imidazole-4-carboxylic acid methyl ester] the inhibition at 1 µM was 99%.
For `COC(=O)CCC1(C(=O)OC)N=CN(CCc2ccccc2)C1C1CCC(C(c2cccc(F)c2)N(C)C)CC1` (centres unmarked) [Example 91, 5-{4-[dimethylamino-(3-fluorophenyl)-methyl]-cyclohexyl}-4-(2-methoxycarbonylethyl)-1-phenethyl-4,5-dihydro-1H-imidazole-4-carboxylic acid methyl ester], the inhibition at 1 µM was 85%.
In the case of `COC(=O)C1(CSCc2ccccc2)N=CN(CCc2ccccc2)C1C1CCC(C(c2cccc(F)c2)N(C)C)CC1` (centres unmarked) [Example 92, 4-benzylsulfanylmethyl-5-{4-[dimethylamino-(3-fluorophenyl)-methyl]-cyclohexyl}-1-phenethyl-4,5-dihydro-1H-imidazole-4-carboxylic acid methyl ester], the inhibition at 1 µM is reported as 95%.
Work on `COC(=O)C1(CSCc2ccccc2)N=CN(CCc2ccccc2)C1C1CCC(C(c2ccc(Cl)cc2)N(C)C)CC1` (centres unmarked) [Example 93, 4-benzylsulfanylmethyl-5-{4-[(4-chlorophenyl)-dimethylaminomethyl]-cyclohexyl}-1-phenethyl-4,5-dihydro-1H-imidazole-4-carboxylic acid methyl ester] yielded an inhibition at 1 µM of 92%.
`COC(=O)CCC1(C(=O)OC)N=CN(CCc2ccccc2)C1CC1CCC(C(c2ccc(Cl)cc2)N(C)C)CC1` (centres unmarked) [Example 94, 5-{4-[(4-chlorophenyl)-dimethylaminomethyl]-cyclohexylmethyl}-4-(2-methoxycarbonylethyl)-1-phenethyl-4,5-dihydro-1H-imidazole-4-carboxylic acid methyl ester] was tested, and the inhibition at 1 µM was 97%.
`COC(=O)CCC1(C(=O)OC)N=CN(Cc2ccccc2)C1C1CCC(C(c2cccc(F)c2)N(C)C)CC1` (centres unmarked) [Example 95, 1-benzyl-5-{4-[dimethylamino-(3-fluorophenyl)-methyl]-cyclohexyl}-4-(2-methoxycarbonylethyl)-4,5-dihydro-1H-imidazole-4-carboxylic acid methyl ester] gave an inhibition at 1 µM of 94%.
`COC(=O)C1(CSC)N=CN(Cc2ccccc2)C1C1CCC(C(c2cccc(F)c2)N(C)C)CC1` (centres unmarked) [Example 96, 1-benzyl-5-{4-[dimethylamino-(3-fluorophenyl)-methyl]-cyclohexyl}-4-methylsulfanylmethyl-4,5-dihydro-1H-imidazole-4-carboxylic acid methyl ester] was tested, and the inhibition at 1 µM was 97%.
In the case of `COC(=O)C1(CSCc2ccccc2)N=CN(Cc2ccccc2)C1C1CCC(C(c2cccc(F)c2)N(C)C)CC1` (centres unmarked) [Example 97, 1-benzyl-4-benzylsulfanylmethyl-5-{4-[dimethylamino-(3-fluorophenyl)-methyl]-cyclohexyl}-4,5-dihydro-1H-imidazole-4-carboxylic acid methyl ester], the inhibition at 1 µM is reported as 97%.
In the case of `COC(=O)C1(CSCc2ccccc2)N=CN(Cc2ccccc2)C1C1CCC(C(c2ccc(Cl)cc2)N(C)C)CC1` (centres unmarked) [Example 98, 1-benzyl-4-benzylsulfanylmethyl-5-{4-[(4-chlorophenyl)-dimethylaminomethyl]-cyclohexyl}-4,5-dihydro-1H-imidazole-4-carboxylic acid methyl ester], the inhibition at 1 µM is reported as 95%.
In the case of `COC(=O)CCC1(C(=O)OC)N=CN(Cc2ccccc2)C1CC1CCC(C(c2ccc(Cl)cc2)N(C)C)CC1` (centres unmarked) [Example 99, 1-benzyl-5-{4-[(4-chlorophenyl)-dimethylaminomethyl]-cyclohexylmethyl}-4-(2-methoxycarbonylethyl)-4,5-dihydro-1H-imidazole-4-carboxylic acid methyl ester], the inhibition at 1 µM is reported as 100%.
Molecule `COC(=O)C1(CSC)N=CN(Cc2ccccc2)C1CC1CCC(C(c2ccc(Cl)cc2)N(C)C)CC1` (centres unmarked) [Example 100, 1-benzyl-5-{4-[(4-chlorophenyl)-dimethylaminomethyl]-cyclohexylmethyl}-4-methylsulfanylmethyl-4,5-dihydro-1H-imidazole-4-carboxylic acid methyl ester] has an inhibition at 1 µM of 97%.
`COC(=O)C1(CSCc2ccccc2)N=CN(Cc2ccccc2)C1CC1CCC(C(c2ccc(Cl)cc2)N(C)C)CC1` (centres unmarked) [Example 101, 1-benzyl-4-benzylsulfanylmethyl-5-{4-[(4-chlorophenyl)-dimethylaminomethyl]-cyclohexylmethyl}-4,5-dihydro-1H-imidazole-4-carboxylic acid methyl ester] gave an inhibition at 1 µM of 96%.
`CCCC1(C(=O)OC)N=CN(C2CCCCC2)C1CC1CCC(C(c2cccc(F)c2)N(C)C)CC1` (centres unmarked) [Example 102, 1-cyclohexyl-5-{4-[dimethylamino-(3-fluorophenyl)-methyl]-cyclohexylmethyl}-4-propyl-4,5-dihydro-1H-imidazole-4-carboxylic acid methyl ester] gave an inhibition at 1 µM of 91%.
In the case of `COC(=O)C1(CCSC)N=CN(C2CCCCC2)C1CC1CCC(C(c2cccc(F)c2)N(C)C)CC1` (centres unmarked) [Example 103, 1-cyclohexyl-5-{4-[dimethylamino-(3-fluorophenyl)-methyl]-cyclohexylmethyl}-4-(2-methylsulfanyl-ethyl)-4,5-dihydro-1H-imidazole-4-carboxylic acid methyl ester], the inhibition at 1 µM is reported as 99%.
